In article PMC13586173, “Synthetic cannabinoid receptor agonists inhibit the cardiac voltage-gated potassium channel hERG” (Acta Pharmacologica Sinica, 2026):
Entries after “also recorded” stand apart in the source; their conditions may differ. Read-outs that look alike come from different tables or passages of the source.

Columns and labels:
hERG (KV11.1) = hERG (KV11.1) (Homo sapiens, UniProt Q12809); test: Automated planar patch-clamp (APC, QPatch II 48), voltage-ladder protocol, CHO cells stably expressing human hERG; conditions: for hERG channel Efficacy (max reduction in Gmax) Gmin, marked *: * Greatest efficacy achieved with a concentration between 10 and 30 µM (no fit); for hERG channel Efficacy (max reduction in Gmax) Gmin, marked * / hERG channel Efficacy (max reduction in Gmax) Gmin: 1 = no reduction of Gmax; for effect on Gmax of hERG (in words): APC concentration-response, 1.11 to 30 µM; for hERG channel Efficacy (max reduction in Gmax) Gmin: 0 = complete reduction
Description: To assess the effect of a large set of SCRAs on hERG (see SI Table I and SI Fig. S1 for a list of the 36 included SCRAs and corresponding structures), we used the automated planar patch-clamp (APC) technique on mammalian Chinese hamster ovary (CHO) cells stably expressing human hERG. […] We employed a voltage-ladder protocol to obtain information on SCRA effects on the channel’s voltage dependence of activation (V50) and maximal conductance (Gmax) (both determined from Boltzmann fits of the instantaneous tail currents; see Methods for details).
Stably expressing cell lines “CHO-hERG DUO” (here referred to as hERG; gene: KCNH2) and “CHO-KVLQT1/mink” (here referred to as KV7.1/KCNE1; gene: KCNQ1/KCNE1), (B’SYS GmBH, Witterswil, Switzerland) were used to study whole-cell K^+ currents on a QPatch II 48 APC system (Sophion Bioscience A/S, Ballerup, Denmark). Cell culture and passaging were performed in accordance with standard operating procedures. Cells were harvested in serum-free medium with Detachin^TM (Genlantis, CA, USA) immediately prior to experiments. For MPC on transient cell lines, CHO-K1 CCL-61 cells (ATCC, Manassas, VA, USA) were cultured in Ham’s F-12 medium supplemented with 10% fetal bovine serum (FBS) and 100 U/mL penicillin–100 µg/mL streptomycin (Gibco, Thermo Fisher Scientific, Waltham, MA, USA). Transfection was carried out using JetOPTIMUS® reagent (Polyplus, Strasbourg, France) according to the manufacturer’s protocol. Briefly, 80,000 cells were seeded per well in a 12-well plate and transfected with 300 ng of pcDNA3-GFP plasmid, 700 ng of pcDNA3-hERG plasmid with either the wild-type or mutant channels (S624A, S649A, or Y652A), and […] of JetOPTIMUS. After 8 h, cells were detached and reseeded at a density of 30,000 cells per well onto several poly-D-lysine-coated glass coverslips placed in a 12-well plate. For the CB1 receptor activity assay, the AequoScreen® recombinant Chinese hamster ovary (CHO) K1 cell line, stably expressing the human CB1 receptor (ES-110-A), was used (Revvity, Sollentuna, Sweden).
Automated patch-clamp recordings were performed at 22 °C. Freshly harvested cell suspensions (2–3 million cells/mL) were prepared for experiments by the QPatch II 48 automated cell preparation unit. Cells were centrifuged for 150 s at 150 × g and washed twice with the extracellular recording solution. Cells were handled by the integrated pipetting robot and added to the 48 experiment sites on the planar patch-clamp consumable QPlate. Each experiment site contained an individual pair of recording electrodes and a silicon/glass biochip embedded in the flow channels. Single-cell patch recordings (n = 1 is defined as one single-cell patch) and population patch recordings (up to 10 cells per well, n = 1 is defined as one population patch) were performed for hERG and for KV7.1/KCNE1, respectively. Cells were applied, positioned and sealed to the patch holes by a mild suction protocol; whole-cell access was then achieved by a stronger suction pulse.
The intracellular solution contained (in mM): 100 KCl, 4.3 CaCl2, 1.4 MgCl2, 25/10 KOH/EGTA, 24 KF, 10 HEPES, and 4 Mg-ATP (hERG) or 4 Na-ATP (KV7.1/KCNE1). […] The compounds were pre-diluted in DMSO, and the final concentration of DMSO (0.3%) was equal in all recording solutions to control for vehicle effects. The compounds made no contact with plastics following dilution in extracellular solution.
An overview of experimental conditions is provided in SI Table VII, Square voltage pulses in a voltage ladder protocol were used to study current/voltage (I(V)) relationships. Each voltage protocol was first run three times in the presence of vehicle (extracellular solution supplemented with 0.3% DMSO), the 3rd serving as the baseline. Voltage protocols were repeated in the presence of 4 cumulatively rising concentrations of test compound, followed by application of vehicle for recovery.

human CB1 receptor = molecular target: T1, human CB1 receptor (Homo sapiens, UniProt P21554); test: AequoScreen intracellular calcium release assay, CHO-K1 cells stably expressing CB1; format: cell-based; conditions: n ≥ 3 (JWH-030 n = 2); for CB1 receptor Efficacy Emax: normalized to maximum of JWH-018
T1 construct: host or cells: CHO-K1 stably expressing CB1, apoaequorin and Gα16

KV7.1/KCNE1 = KV7.1/KCNE1 (Homo sapiens, UniProt P51787); test: Automated patch-clamp (APC, population patch), CHO cells stably expressing human KV7.1/KCNE1; format: cell-based; conditions: for KV7.1/KCNE1 channel Efficacy (max reduction in Gmax) Gmin, marked *: * Greatest efficacy achieved with a concentration between 10 and 30 µM (no fit); for Gmax effect on hERG versus KV7.1/KCNE1 (in words): 10 µM, both channels by APC; for KV7.1/KCNE1 channel Efficacy (max reduction in Gmax) Gmin: best fit, 1 = no reduction of Gmax, 0 = complete reduction
Protocol: Both hERG and KV7.1/KCNE1 contribute to cardiomyocyte repolarization (Fig. 1g). Inhibition of KV7.1/KCNE1 alone can be proarrhythmic. Moreover, under conditions with impaired hERG function, upregulation of KV7.1/KCNE1 has been proposed to partially compensate for the loss of hERG [38, 39]. […] To assess if SCRAs also affect KV7.1/KCNE1, we used mammalian CHO cells stably expressing human KV7.1/KCNE1. […] At 10 µM, 7 of the SCRAs caused a significant positive shift in V50 (Fig. 5e), with the largest shift induced by MDMB-[…] (ΔV50 = +10.3 ± 1.6 mV).
Automated patch-clamp recordings were performed at 22 °C.
For the KV7.1/KCNE1 voltage ladder protocol (SI Table VII) the solutions were present for 60 s before recording started. KV7.1/KCNE1 cells were kept at a holding voltage of −90 mV, with brief hyperpolarizing steps to −100 mV for 540 ms (to calculate ohmic leakage). […] The time between compound application and the first voltage protocol was 60 s. Time between sweeps was 15 s. The voltage ladder protocol was executed every 220 s.
For Gmax (rel.), N was set to –1. For ΔV50, N was set to 1.

[1] = CB1 receptor Potency EC50, normalized to median EC50 of JWH-018
[2] = read-out: hERG channel Potency IC50 (Gmax reduction), APC, 22 °C, best fit
[3] = normalized to median EC50 of JWH-018, read-out: CB1 receptor Potency EC50
[4] = experimentally observed effect of 10 µM, used in ORd simulation

hERG (KV11.1), sequence (Q12809 whole entry): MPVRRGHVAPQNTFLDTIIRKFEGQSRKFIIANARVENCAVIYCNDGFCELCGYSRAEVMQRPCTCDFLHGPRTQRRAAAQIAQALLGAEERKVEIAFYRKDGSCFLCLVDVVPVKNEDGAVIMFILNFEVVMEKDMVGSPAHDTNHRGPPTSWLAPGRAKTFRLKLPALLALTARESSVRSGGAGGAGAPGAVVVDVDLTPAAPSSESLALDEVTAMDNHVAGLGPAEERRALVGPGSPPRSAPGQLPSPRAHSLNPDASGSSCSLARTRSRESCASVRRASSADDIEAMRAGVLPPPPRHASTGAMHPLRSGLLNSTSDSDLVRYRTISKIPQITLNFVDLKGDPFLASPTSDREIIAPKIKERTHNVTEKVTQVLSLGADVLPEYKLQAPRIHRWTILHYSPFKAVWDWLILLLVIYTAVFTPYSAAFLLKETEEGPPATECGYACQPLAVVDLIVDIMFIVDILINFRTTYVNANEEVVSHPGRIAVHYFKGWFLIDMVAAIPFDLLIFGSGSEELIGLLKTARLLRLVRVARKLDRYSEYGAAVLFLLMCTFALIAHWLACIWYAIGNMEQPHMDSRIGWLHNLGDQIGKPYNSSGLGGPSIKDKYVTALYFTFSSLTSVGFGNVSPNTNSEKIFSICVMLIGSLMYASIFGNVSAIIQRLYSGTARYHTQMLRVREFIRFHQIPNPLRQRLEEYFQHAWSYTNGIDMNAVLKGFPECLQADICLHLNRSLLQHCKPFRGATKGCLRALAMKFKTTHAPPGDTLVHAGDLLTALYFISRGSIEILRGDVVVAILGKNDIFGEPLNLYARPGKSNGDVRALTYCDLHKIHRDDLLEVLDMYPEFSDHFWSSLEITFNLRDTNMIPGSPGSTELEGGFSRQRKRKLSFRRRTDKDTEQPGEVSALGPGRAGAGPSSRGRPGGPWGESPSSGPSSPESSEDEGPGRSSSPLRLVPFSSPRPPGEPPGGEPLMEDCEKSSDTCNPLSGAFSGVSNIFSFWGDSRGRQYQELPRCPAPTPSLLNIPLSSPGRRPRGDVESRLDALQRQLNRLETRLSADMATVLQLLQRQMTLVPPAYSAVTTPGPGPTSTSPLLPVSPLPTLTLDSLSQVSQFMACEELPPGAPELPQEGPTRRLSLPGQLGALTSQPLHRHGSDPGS
KV7.1/KCNE1, sequence (P51787 whole entry): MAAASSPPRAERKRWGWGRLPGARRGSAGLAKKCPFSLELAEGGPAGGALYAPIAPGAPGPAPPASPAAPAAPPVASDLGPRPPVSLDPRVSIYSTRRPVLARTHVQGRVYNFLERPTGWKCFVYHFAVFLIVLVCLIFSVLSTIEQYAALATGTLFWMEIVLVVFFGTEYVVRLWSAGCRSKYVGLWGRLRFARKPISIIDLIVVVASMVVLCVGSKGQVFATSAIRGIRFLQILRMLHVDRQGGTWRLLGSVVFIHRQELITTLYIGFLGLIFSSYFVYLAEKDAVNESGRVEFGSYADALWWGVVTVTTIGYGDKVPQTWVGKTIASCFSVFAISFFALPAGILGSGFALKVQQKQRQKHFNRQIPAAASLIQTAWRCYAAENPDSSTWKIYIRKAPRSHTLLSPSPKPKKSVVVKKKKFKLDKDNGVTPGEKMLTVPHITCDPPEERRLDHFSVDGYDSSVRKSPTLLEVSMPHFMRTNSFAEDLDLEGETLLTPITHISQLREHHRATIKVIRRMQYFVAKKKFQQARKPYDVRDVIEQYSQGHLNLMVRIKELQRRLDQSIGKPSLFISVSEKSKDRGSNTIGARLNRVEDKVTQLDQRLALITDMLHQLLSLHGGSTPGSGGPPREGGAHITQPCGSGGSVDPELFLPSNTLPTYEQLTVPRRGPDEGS
T1 sequence (P21554 whole entry): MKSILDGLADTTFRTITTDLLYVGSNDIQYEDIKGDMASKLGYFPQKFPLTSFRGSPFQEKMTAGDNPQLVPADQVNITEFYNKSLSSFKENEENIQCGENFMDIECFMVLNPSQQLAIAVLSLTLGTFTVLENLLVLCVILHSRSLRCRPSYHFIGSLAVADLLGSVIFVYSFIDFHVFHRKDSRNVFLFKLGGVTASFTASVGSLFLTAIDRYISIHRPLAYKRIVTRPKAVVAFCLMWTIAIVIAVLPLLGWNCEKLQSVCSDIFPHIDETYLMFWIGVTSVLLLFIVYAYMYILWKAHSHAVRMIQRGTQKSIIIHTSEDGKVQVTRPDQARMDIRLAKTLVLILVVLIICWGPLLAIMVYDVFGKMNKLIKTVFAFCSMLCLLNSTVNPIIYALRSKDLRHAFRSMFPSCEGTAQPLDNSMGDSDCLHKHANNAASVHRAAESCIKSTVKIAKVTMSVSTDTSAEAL

| Compound | hERG channel Efficacy (max reduction in Gmax) Gmin, marked * (hERG (KV11.1)) | effect on Gmax of hERG (in words) (hERG (KV11.1)) | EC50 (human CB1 receptor; [1]) [µM] | CB1 receptor Efficacy Emax (human CB1 receptor) [% JWH-018] | KV7.1/KCNE1 channel Efficacy (max reduction in Gmax) Gmin, marked * (KV7.1/KCNE1) | hERG channel Efficacy (max reduction in Gmax) Gmin (hERG (KV11.1); best fit, APC, 22 °C) | IC50 (hERG (KV11.1); [2]) [µM] | EC50 (human CB1 receptor; [3]) [µM] | Gmax effect on hERG versus KV7.1/KCNE1 (in words) (KV7.1/KCNE1) | IC50 (hERG (KV11.1)) [µM] | KV7.1/KCNE1 channel Efficacy (max reduction in Gmax) Gmin (KV7.1/KCNE1) | remaining IKr (hERG Gmax) (hERG (KV11.1); [4]) [%] | IC50 (KV7.1/KCNE1) [µM] | remaining IKs (KV7.1/KCNE1 Gmax) (KV7.1/KCNE1; [4]) [%] |
| --- | --- | --- | --- | --- | --- | --- | --- | --- | --- | --- | --- | --- | --- | --- |
| CCCCCN1C(=O)/C(=N\NC(=O)c2ccccc2)c2ccccc21 [BZO-POXIZID] | 0.79 | non-inhibitor | 0.349 | 108 | 0.83 |  |  |  |  |  |  |  |  |  |
| O=C(c1cccc2ccccc12)c1cn(CCCCCF)c2ccccc12 [AM-2201] |  |  |  | 99.7 | 0.92 | 0.38 | 1.3 | 0.0258 | effects only on hERG |  |  |  |  |  |
| CC1(C)C(C(=O)c2cn(CCCCCF)c3ccccc23)C1(C)C [XLR-11] |  | concentration-dependent inhibitory effects on Gmax | 0.26 | 105 | 0.87 | 0.54 |  |  |  | 20.4 |  |  |  |  |
| CC(C)(C)[C@H](NC(=O)c1nn(Cc2ccc(F)cc2)c2ccccc12)C(N)=O [ADB-FUBINACA] |  |  |  | 106 | 0.81 | 0.25 | 13.7 | 0.00497 |  |  |  |  |  |  |
| COC(=O)[C@@H](NC(=O)c1cn(CC2CCCCC2)c2ccccc12)C(C)C [MMB-CHMICA] |  |  |  | 109 |  | 0.75 | 2.6 | 0.00876 |  |  | 0.83 |  |  |  |
| O=C(N/N=C1\C(=O)N(CCCCCF)c2ccccc21)c1ccccc1 [5F-BZO-POXIZID] |  | concentration-dependent inhibitory effects on Gmax; also recorded: prominent inhibitory Gmax effects | 0.193 | 113 | 0.83 | 0.29 |  |  | effects only on hERG | 0.9 |  |  |  |  |
| CCCCCn1cc(C(=O)c2ccc(CC)c3ccccc23)c2ccccc21 [JWH-210] | 0.89 |  |  | 110 |  |  |  | 0.0101 |  |  | 0 |  |  |  |
| CCCCCCn1nc(C(=O)NC(C(N)=O)C(C)(C)C)c2ccccc21 (stereo not shown) [ADB-HEXINACA] |  |  | 0.0394 | 117 |  | 0.037 |  |  |  | 15.8 | 0.41 | 63 | 1.99 | 52 |
